Laboratory results: article PMC12145819, “Challenging activity and signaling bias in tachykinin NK1 and NK2 receptors by truncated neuropeptides” (The Journal of Biological Chemistry, 2025)
No end group written: not given here.

Columns and labels:
[1] = biological target: T1, NK2R WT (human TACR2) (Homo sapiens, UniProt P21452); experiment: BRET-based cAMP assay (Gs activation), NK2R; format: cell-based
T1 construct: host or cells: COS7 cells, transient calcium-precipitation transfection
T1 sequence (P21452 1-398): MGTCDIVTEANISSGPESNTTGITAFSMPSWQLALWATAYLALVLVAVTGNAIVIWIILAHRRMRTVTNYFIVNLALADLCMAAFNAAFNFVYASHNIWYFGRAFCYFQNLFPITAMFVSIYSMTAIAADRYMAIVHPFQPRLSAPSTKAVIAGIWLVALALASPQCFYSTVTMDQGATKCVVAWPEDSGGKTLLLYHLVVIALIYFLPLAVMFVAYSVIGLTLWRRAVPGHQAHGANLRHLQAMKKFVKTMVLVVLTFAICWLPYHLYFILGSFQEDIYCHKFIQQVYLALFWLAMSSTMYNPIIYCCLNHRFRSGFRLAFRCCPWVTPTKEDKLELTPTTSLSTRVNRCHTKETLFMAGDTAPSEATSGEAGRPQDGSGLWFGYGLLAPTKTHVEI
Protocol: (§1) All receptor constructs of WT and modified human TACR1 and TACR2 were inserted into the pcDNA3.1(+)-C-DYK vector (Genscript) whereas CAMYEL ([34]) was expressed via pcDNA3.1(+) vector.
COS7 cells were tested monthly for mycoplasma and kept negative. COS7 cells were plated in either clear- or white- or white with clear bottom 96-well plates that were coated with poly-D-lysine (Sigma-Aldrich) 30 min prior to cell seeding (20.000 cells/well). The following day plates were transiently transfected using calcium precipitation with 200 ng/well DNA of receptor DNA and for the cAMP assays a 1000 ng/well of CAMYEL in a culture medium with the addition of 100 μM (final concentration) chloroquine. Transfection was stopped 5 h later with the addition of a fresh maintenance medium.
(§2) The intracellular level of cAMP was monitored in real-time using BRET. This was achieved by implementing a construct consisting of a cAMP binding protein (exchange protein activated by cAMP (EPAC)) which has been flanked by a BRET pair consisting of Renilla luciferase (Rluc) and yellow fluorescent protein (YFP). This construct is called CAMYEL (cAMP sensor using YFP-Epac-Rluc) and enables cAMP production to be sensed as Epac change conformations in response to increasing levels of cAMP, ultimately resulting in a loss of BRET signal.
On the day of the assay, white 96-well plates with COS7 cells were washed twice with 100 μl/well Hank’s balanced salt solution (HBSS) (GIBCO, Life Technologies) and preincubated for 30 min at 37 °C with 85 μl HBSS. Luciferase substrate coelenterazine h (Thermo Fisher Scientific) was added to a final concentration of 5 μM, and a baseline measurement was taken after 5 min. […] Determinations were made in minimum duplicates.
(§3) In both assay formats, the measurement window could shift between runs without affecting the overall curve shape. Emax and Emin values often shifted uniformly upward or downward, while the sigmoidal profile remained consistent, contributing to increased standard deviation.
(§4) All concentration-response curves have been calculated using Prism 10 software (GraphPad Software, www.graphpad.com) nonlinear regression with four parameters. SD is used for concentration-response curves to illustrate variability in experimental measurements. However, when comparing LogEC50 values, standard error of the mean (SEM) is used to reflect the precision of the estimated means and facilitate statistical comparisons. This approach ensures an accurate representation of variability while maintaining appropriate statistical rigor for hypothesis testing. All data consist of two technical replicates from three biological replicates. Statistical significance of differences between LogEC50 values (based on SEM estimates) was assessed using an unpaired two-tailed t test. Normal distribution of LogEC50 values was confirmed by the Shapiro–Wilk test. p-Values were represented using asterisks: ns for p > 0.05 (not significant), ∗ for p ≤ 0.05, ∗∗ for p ≤ 0.01, ∗∗∗ for p ≤ 0.001, and ∗∗∗∗ for p ≤ 0.0001.

[2] = biological target: T1, NK2R WT (human TACR2); experiment: IP3 accumulation assay (Gq activation), NK2R; format: cell-based
Protocol: (§5) COS7 cells were plated in either clear- or white- or white with clear bottom 96-well plates that were coated with poly-D-lysine (Sigma-Aldrich) 30 min prior to cell seeding (20.000 cells/well). The following day plates were transiently transfected using calcium precipitation with 200 ng/well DNA of receptor DNA and for the cAMP assays a 1000 ng/well of CAMYEL in a culture medium with the addition of 100 μM (final concentration) chloroquine. Transfection was stopped 5 h later with the addition of a fresh maintenance medium.
(§6) COS7 cells seeded in clear 96-well plates were incubated with 0.5 μCi/ml myo [3H]inositol (PerkinElmer) in 100 μl growth medium overnight following the transfection. The subsequent day cells were washed twice with 200 μl/well HBSS (GIBCO, Life Technologies) and preincubated for 5 min at 37 °C with 100 μl/well HBSS buffer supplemented with 10 mM LiCl. Ligand addition was followed by 90 min incubation at 37 °C. To stop ligand incubation, cells were lysed with 40 μl 10 mM formic acid followed by 30 min incubation on ice. Subsequently, 35 μl of the lysate was transferred to white 96-well plates together with 60 μl of 1:8 diluted YSi SPA scintillation beads (PerkinElmer). Plates were sealed and vigorously shaken for 15 min followed by 5 min centrifugation at 1500 rpm. Measurements (scintillation) were recorded on a MicroBeta (PerkinElmer) after a 4 h delay, and determinations were made in duplicates.
as §3, §4

[3] = tested on: NK1R-R177 mutated to alanine; conditions: NK1R-R177 to alanine vs WT; cited from earlier work
[4] = tested on: NK1R-R177 mutated to lysine; conditions: NK1R-R177 to lysine vs WT; cited from earlier work
[5] = tested on: NK1R-Q24 mutated to asparagine; conditions: NK1R-Q24 to asparagine vs WT; cited from earlier work
[6] = biological target: T2, NK1R WT (human TACR1) (Homo sapiens, UniProt P25103); experiment: BRET-based cAMP assay (Gs activation), NK1R; format: cell-based
T2 construct: host or cells: COS7 cells, transient calcium-precipitation transfection
Protocol: as §1
COS7 cells were maintained in Dulbecco's modified Eagle's medium 1885 with GlutaMAX supplemented with 10% fetal bovine serum (Sigma-Aldrich), 100 units/ml penicillin and 100 μg/ml streptomycin at 37 °C with 10% CO2. […] COS7 cells were plated in either clear- or white- or white with clear bottom 96-well plates that were coated with poly-D-lysine (Sigma-Aldrich) 30 min prior to cell seeding (20.000 cells/well). The following day plates were transiently transfected using calcium precipitation with 200 ng/well DNA of receptor DNA and for the cAMP assays a 1000 ng/well of CAMYEL in a culture medium with the addition of 100 μM (final concentration) chloroquine. Transfection was stopped 5 h later with the addition of a fresh maintenance medium.
as §2
On the day of the assay, white 96-well plates with COS7 cells were washed twice with 100 μl/well Hank’s balanced salt solution (HBSS) (GIBCO, Life Technologies) and preincubated for 30 min at 37 °C with 85 μl HBSS. Luciferase substrate coelenterazine h (Thermo Fisher Scientific) was added to a final concentration of 5 μM, and a baseline measurement was taken after 5 min. […] The BRET signal was calculated as the ratio of emission intensity at 535 nm (citrine) to the emission intensity at 475 nm (luciferase). Determinations were made in minimum duplicates.
as §3
All concentration-response curves have been calculated using Prism 10 software (GraphPad Software, www.graphpad.com) nonlinear regression with four parameters. SD is used for concentration-response curves to illustrate variability in experimental measurements. However, when comparing LogEC50 values, standard error of the mean (SEM) is used to reflect the precision of the estimated means and facilitate statistical comparisons. […] All data consist of two technical replicates from three biological replicates. Statistical significance of differences between LogEC50 values (based on SEM estimates) was assessed using an unpaired two-tailed t test. Normal distribution of LogEC50 values was confirmed by the Shapiro–Wilk test. p-Values were represented using asterisks: ns for p > 0.05 (not significant), ∗ for p ≤ 0.05, ∗∗ for p ≤ 0.01, ∗∗∗ for p ≤ 0.001, and ∗∗∗∗ for p ≤ 0.0001.

[7] = biological target: T2, NK1R WT (human TACR1); experiment: IP3 accumulation assay (Gq activation), NK1R; format: cell-based
Protocol: as §5, §6, §3, §4

[8] = tested on: NK1R; conditions: cited from earlier work
[9] = tested on: NK1R; conditions: cited from earlier work; remark: listed apart in the source
[10] = Fig. 6A, given as log(EC50), transfected COS7 cells, three independent experiments in duplicates, read-out: log(EC50), cAMP - NK2R WT (converted)
[11] = Fig. 6B, given as log(EC50), transfected COS7 cells, three independent experiments in duplicates, read-out: log(EC50), IP3 - NK2R WT (converted)
[12] = Fig. 2A, acetylated analogs, given as log(EC50), transfected COS7 cells, three independent experiments in duplicates
[13] = read-out: log(EC50), IP3 - NK1R WT (converted)
[14] = read-out: log(EC50), cAMP - NK1R WT (converted)
[15] = Fig. 2C, analogs with free N termini, given as log(EC50), transfected COS7 cells, three independent experiments in duplicates
[16] = Fig. 2D, analogs with free N termini, given as log(EC50), transfected COS7 cells, three independent experiments in duplicates

T2 sequence (P25103 whole entry): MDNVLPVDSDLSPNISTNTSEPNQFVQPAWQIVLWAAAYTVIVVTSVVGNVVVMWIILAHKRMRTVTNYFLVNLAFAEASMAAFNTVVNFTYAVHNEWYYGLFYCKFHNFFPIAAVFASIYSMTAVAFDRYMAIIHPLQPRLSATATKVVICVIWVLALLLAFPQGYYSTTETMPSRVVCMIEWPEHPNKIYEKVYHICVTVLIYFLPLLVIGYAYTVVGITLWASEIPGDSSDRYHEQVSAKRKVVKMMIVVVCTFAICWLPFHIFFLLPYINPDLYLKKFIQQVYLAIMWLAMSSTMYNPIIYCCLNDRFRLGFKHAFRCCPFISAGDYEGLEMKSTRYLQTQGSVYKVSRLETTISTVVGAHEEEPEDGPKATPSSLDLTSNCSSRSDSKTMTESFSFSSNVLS

`CSCC[C@H](NC(=O)[C@H](CC(C)C)NC(=O)CNC(=O)[C@@H](NC(=O)[C@H](Cc1ccccc1)NC(=O)[C@H](CO)NC(=O)[C@H](CC(=O)O)NC(C)=O)C(C)C)C(N)=O` [Ac-DSFVGLM-NH2] gave an EC50 [1, 10] of 50.1 nM and an EC50 [2, 11] of 20 nM.

For `CSCC[C@H](NC(=O)[C@H](CC(C)C)NC(=O)CNC(=O)[C@@H](NC(=O)[C@H](Cc1ccccc1)NC(=O)[C@H](CO)NC(=O)[C@@H](N)CC(=O)O)C(C)C)C(N)=O` [DSFVGLM-NH2], the EC50 [1] was 10 nM, the “increase in Gs potency compared to acetylated counterpart” value ([1]; NK2R, Fig. 6A, analog with a free N terminal) was “five” and the EC50 [2] was 10 nM.

In the case of `CSCC[C@H](NC(=O)[C@H](CC(C)C)NC(=O)CNC(=O)[C@H](Cc1ccccc1)NC(=O)[C@H](Cc1ccccc1)NC(=O)[C@H](CCC(N)=O)NC(=O)[C@H](CCC(N)=O)NC(=O)[C@@H]1CCCN1C(=O)[C@H](CCCCN)NC(=O)[C@@H]1CCCN1C(=O)[C@@H](N)CCCNC(=N)N)C(N)=O` [SP, substance P], the “reduction of binding affinity for SP (factor)” value (shortened to “reduction of binding affinity”) [3] is listed as 46, the “reduction of binding affinity” value [4] is listed as 60 and the “reduction of binding affinity” value [5] is listed as “five”.

For Ac-QFFGLM-NH2 [Ac-QFFGLM-NH2], the EC50 [6, 12] was 3.98 nM, the “reduction in Gs potency” value ([6]; NK1R, relative to SP) was 5.0 fold and the EC50 [7, 13] was 1.58 nM.

Molecule Ac-QQFFGLM-NH2 [Ac-QQFFGLM-NH2] has an EC50 [6, 12] of 1.26 nM and an EC50 [7, 13] of 3.16 nM.

Work on Ac-SFVGLM-NH2 [Ac-SFVGLM-NH2] yielded an EC50 [6, 14] of 200 nM, an EC50 [7, 13] of 7.94 nM and an EC50 [1, 10] of 316 nM. For the same molecule, the EC50 [2, 11] was 50.1 nM.

Molecule QFFGLM-NH2 [QFFGLM-NH2] has an EC50 [6, 15] of 15.8 nM, an EC50 [7, 16] of 12.6 nM and an EC50 ([7]; Fig. 5A, Gq activation, given as log(EC50), transfected COS7 cells, three independent experiments in duplicates) of 20 nM. For the same molecule, the “lower Gq potency” value ([7]; NK1R, Fig. 5A, compared with acetylated analog and SP) was 15 fold, the “activity in IP3 accumulation assay (Gq) compared to SP” value [8] was “half activity” and the “lower activity in BRET-based cAMP assay (Gs) compared to SP” value [9] was 16 fold.

Molecule QQFFGLM-NH2 [QQFFGLM-NH2] has an EC50 [6, 15] of 7.94 nM and an EC50 [7, 16] of 5.01 nM.

SFVGLM-NH2 [SFVGLM-NH2] showed an EC50 [6, 14] of 316 nM, an EC50 [7, 13] of 50.1 nM and an EC50 [1, 10] of 1580 nM. It also gave an EC50 [2, 11] of 200 nM.
